“And” between values parts separate entries of the source, which are not always exact repeats. Equal entries are not always repeated.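 Each compound was tested at five concentrations against cells in 96-well plates for 48 hours. The concentration for 50% growth inhibition is given as GI50. TGI denotes the concentration required for complete inhibition of growth.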

Holding throughout (assay): NCI anticancer screen, dose series, 48 h
Assay [1] concerns MALME-3M melanoma.
Assay [2] concerns NCI-H226 lung.
The test system of assay [3] is OVCAR-5 ovarian.
Assay [4] deals with SK-MEL-2 melanoma.
Assay [5] concerns A498 renal.
Assay [6] has as its system SF-539 CNS.
The test system of assay [7] is HOP-92 NSCLC.
Assay [8] relates to LOX IMVI melanoma.
Assay [9] concerns MCF7 breast.

As for `Cc1[nH]c2ccccc2c1CC/C(=N\Nc1ccccc1)c1ccccc1`, the TGI in assay [1], in [2], in assay [3], in [4], in assay [5] and in assay [6] was > 100 µM throughout.
For the compound `O=C(c1ccccc1Cl)n1oc2ccccc2c1=O`, the TGI in [7], in [1], in [2], in assay [3], in [8] and in assay [4] was > 100 µM throughout. Also, the TGI in assay [5], in assay [9] and in assay [6] was > 100 µM throughout.
Turning to `COc1cc(/C=C/c2cc(/C=C/c3ccc(O)c(OC)c3)n(C(=O)Nc3ccccc3Cl)n2)ccc1O`, the GI50 in assay [7] was 0.349 µM; in assay [1], 0.539 µM; in assay [2] it was 0.617 µM; in assay [3] it was 1.65 µM; in assay [8] it was 0.193 µM; in [4] it was 0.397 µM. In addition, the GI50 in [5] was 0.487 µM; in assay [9], 0.29 µM; in assay [6], 0.352 µM. Also, the TGI in [7] was found to be 2.39 µM; in assay [1] it was 2.01 µM; in assay [2], 2.74 µM; in assay [3], 5.5 µM; in assay [8], 1.39 µM; in assay [4], 1.6 µM. Moreover, the TGI in assay [5] worked out at 2.04 µM; in assay [9], 1.4 µM; in assay [6] it was 1.58 µM.
As to `C[C@@H](NS(=O)(=O)c1ccc(NC(=O)c2ccccc2)cc1)C(=O)O`, the TGI in assay [7], in [1], in [3], in assay [8], in assay [4] and in [5] was > 100 µM throughout. In addition, in [6], the TGI was > 100 µM.
Consider `CN(C)CCC(CCN(C)C)=NO`, for which the TGI in assay [1], in [4], in assay [5] and in assay [6] was > 100 µM each time.
Take `CCOC(=O)C1=C(C)NC(=O)NC1CN1C(=O)c2ccccc2C1=O` (stereo not given): the GI50 in assay [7], in assay [1], in [3], in assay [8], in assay [4] and in assay [5] was > 100 µM in each case. For the same compound, the GI50 in assay [9] and in [6] was > 100 µM throughout. Besides, the TGI in assay [7], in [1], in assay [3], in assay [8], in assay [4] and in assay [5] was > 100 µM throughout. In addition, the TGI in assay [9] and in assay [6] was > 100 µM in each case.
Consider `N#Cc1c(NC(=O)c2ccc(F)cc2)sc2c1CCCC2`, for which the GI50 in assay [7], in [1], in [2], in [3], in assay [8] and in assay [5] was > 25 µM throughout. Besides, the GI50 in assay [9] and in assay [6] was > 25 µM throughout. For the same compound, the TGI in assay [7], in [1], in [2], in [3], in [8] and in assay [5] was > 25 µM each time. For the same compound, the TGI in assay [9] and in assay [6] was > 25 µM throughout.
With `COc1ccc(C(=NN=C(N)N)c2ccc(OC)cc2)cc1`, the GI50 in [7] was 1.9 µM; in assay [1], 2.85 µM; in assay [2], 4.37 µM; in assay [3], 5.1 µM; in assay [8], 2.91 µM; in assay [4] it was 2.51 µM. Further, the GI50 in assay [5] is 2.78 µM; in assay [9], 2.89 µM. Further, the TGI came to 7.45 µM in [7]; 11.6 µM in [1]; 18.3 µM in assay [2]; 21.6 µM in assay [3]; 11.4 µM in [8]; 12.6 µM in assay [4]. Moreover, the TGI in [5] came to 13.3 µM; in assay [9], 12.4 µM.
As to `CC(=O)O[C@H]1CCN2C(=O)C=CC(OCc3ccccc3)C12` (stereo not given in full), the TGI in assay [7], in assay [1], in assay [2], in assay [3], in assay [8] and in assay [4] was > 100 µM throughout. The TGI in assay [5] and in [6] was > 100 µM each time.
For the compound `COC(=O)[C@]12CC[C@@H](C)[C@H](C)[C@@H]1C1=CC[C@@H]3[C@@]4(C)C[C@@H](OC(=O)/C=C/c5ccccc5)[C@H](O)[C@@](C)(CO)[C@@H]4[C@H](O)C[C@@]3(C)[C@]1(C)CC2`, the GI50 in [7] was 2.11 µM; in assay [1], 2.84 µM; in assay [2], 2.56 µM; in assay [3] it was 2.17 µM; in assay [8], 1.69 µM; in assay [4], 3.81 µM. Moreover, the GI50 was 1.07 µM in [5], 3.12 µM in assay [9] and 2.08 µM in [6]. Also, the TGI in assay [7] amounted to 6.42 µM; in assay [1], 10.9 µM; in [2], 9.15 µM; in [3], 6 µM; in [8], 3.1 µM; in assay [4], 15.5 µM. Also, the results for the TGI in [5], in assay [9] and in [6] were 4.83 µM, 11.5 µM and 4.77 µM, respectively.
For `COc1ccc(/C=C2\COc3ccc(O)c(O)c3C2=O)c(OC)c1OC`, the GI50 in assay [7] is 2.97 µM; in assay [1], 1.77 µM; in assay [2], 2.66 µM; in assay [3], 3.64 µM; in assay [8] it was 1.78 µM; in assay [4] it was 4.7 µM. In addition, the GI50 in [5] is 5.54 µM; in [9], 2.65 µM; in assay [6], 2.4 µM. The TGI was found to be 9.91 µM in [7]; 4.34 µM in assay [1]; 7.25 µM in assay [2]; 12.8 µM in [3]; 3.49 µM in [8]; 31.1 µM in assay [4]. For the same compound, the TGI is 20.8 µM in assay [5], 86.5 µM in assay [9] and 6.87 µM in [6].
As to `C=CC(=O)NC(N)=NC#N`, the GI50 was 103 µM in assay [7] and 129 µM in [8]. In addition, the TGI in [7] is > 63.7 µM and 252 µM; in [1], 303 µM; in assay [2] it was 353 µM; in assay [3], 317 µM; in [8], 273 µM; in [5], 285 µM. For the same compound, in [6], the TGI amounted to 303 µM.
With `O=C1C(=C([O-])c2ccccc2)C(=O)c2ccccc21.O=C1C(=C([O-])c2ccccc2)C(=O)c2ccccc21.[Mn+2]`, the GI50 in assay [1] is > 100 µM; in assay [2] it was 32 µM; in [3], > 100 µM; in assay [8], > 100 µM; in assay [4], > 100 µM; in assay [6], > 100 µM. The TGI in assay [1], in assay [2], in assay [3], in assay [8], in [4] and in [6] was > 100 µM in each case.
For the compound `N#CCC(=O)N/N=C1/C(=O)N(c2cc(Cl)ccc2Cl)C(=O)C(=O)C1c1nc2ccccc2s1` (stereo not given), the TGI in assay [7] was 83.1 µM; in assay [1], > 100 µM; in [2], > 100 µM; in assay [3], > 100 µM; in assay [8], > 100 µM; in assay [4], > 100 µM. Besides, the TGI in assay [5] and in assay [6] was > 100 µM throughout.
Regarding `O=C(OCCCl)C1OC(n2cc(F)c(=O)[nH]c2=O)CC1O` (stereo not given), the TGI in assay [7], in [1], in [2], in assay [3], in assay [8] and in assay [4] was > 100 µM throughout. Further, the TGI in assay [5] and in [6] was > 100 µM in each case.
Turning to `CC(C)(C)c1cc(CCCCCCCC2(CCCCCCCc3cc(C(C)(C)C)cc(C(C)(C)C)c3)OC(COCCOCCCCCC#N)C(COCCOCCCCCC#N)O2)cc(C(C)(C)C)c1` (stereo not given), the TGI in [7], in [1], in assay [2], in [3], in assay [8] and in assay [4] was > 100 µM in each case. Also, the TGI in assay [5] was > 100 µM.
Consider `NC1CCCCC1N.O=C1C=C/C(=C(/c2ccc(O)c(Br)c2)c2ccccc2S(=O)(=O)[O-])C=C1Br.O=C1C=C/C(=C(/c2ccc(O)c(Br)c2)c2ccccc2S(=O)(=O)[O-])C=C1Br.[Pt+4]`, for which the GI50 in assay [7] is > 100 µM; in assay [1], 0.664 µM; in assay [3] it was 2 µM; in assay [8] it was 3.18 µM; in assay [4] it was 10.1 µM; in assay [5] it was 22.1 µM. For the same compound, the GI50 in assay [6] is 2.62 µM. Also, the TGI in assay [7] was > 100 µM; in [1] it was 21.3 µM; in [3], 87.7 µM; in assay [8], > 100 µM; in [4], > 100 µM; in assay [5] it was > 100 µM. The compound also returned a TGI in [6] of 50.8 µM.
On to `O=C(NCCCl)Nc1cccnc1`, for which the TGI in [7] was 53.3 µM; in assay [1], 7.4 µM; in assay [2], 30.5 µM; in [8], 55.3 µM; in [4], > 100 µM; in assay [5], 40.5 µM. Besides, the TGI in [9] and in [6] was > 100 µM throughout.
Consider `C=CC(=O)N1C[C@@H]2CCOc3c(Cl)c(-c4c(O)cccc4F)c(F)c4ncnc(c34)N2C[C@H]1C`, for which the GI50 in [7] was 17 µM; in assay [1] it was 10.8 µM; in assay [2] it was 13.1 µM; in [3], 16.3 µM; in assay [8] it was 12 µM; in assay [4], 14 µM. Also, the GI50 in assay [5] is 13.6 µM; in assay [9], 14.1 µM; in [6] it was 12.9 µM. Also, the TGI is 39 µM in assay [7]; 23.8 µM in assay [1]; 45.2 µM in assay [2]; 31.1 µM in [3]; 24.4 µM in [8]; 28.7 µM in assay [4]. Further, the TGI in [5] came to 28.1 µM; in [9], 34.5 µM; in assay [6], 25.8 µM.
As for `O=C(COc1cccc(/C=C2\CSc3ccc(Cl)cc3C2=O)c1)c1ccc(Cl)cc1`, the GI50 was 0.666 µM in assay [7]; 10.6 µM in assay [1]; 13.4 µM in assay [2]; 12.5 µM in [3]; 1.63 µM in assay [8]; 11.2 µM in [4]. Besides, the GI50 in [5] was 44.6 µM; in assay [9], 2.12 µM; in assay [6], 16.8 µM. The TGI in [7] was 9.8 µM; in assay [1], 23.9 µM; in assay [2], 44.4 µM; in assay [3], 29.8 µM; in assay [8], 3.02 µM; in assay [4] it was 24.5 µM. In addition, the results for the TGI in assay [5], in [9] and in [6] were > 100 µM, 10.4 µM and 31.2 µM, respectively.
For the compound `COc1cc([N+](=O)[O-])c(OC)cc1-c1nc2sc(C)cn2c1/C(N)=N/C(=N)N`, the GI50 in [7] was 24.1 µM; in [1], 13 µM; in assay [2] it was 43.2 µM; in [3] it was > 100 µM; in assay [8], 30.4 µM; in assay [5], 27.3 µM. Besides, the GI50 in assay [9] is 3.92 µM; in assay [6], 27.3 µM. In addition, the TGI in assay [7] was 88.3 µM; in assay [1] it was 45.2 µM; in [2] it was > 100 µM; in assay [3], > 100 µM; in assay [8], > 100 µM; in assay [5] it was 69.1 µM. The TGI in assay [9] and in [6] was > 100 µM each time.
Take `Cc1cc(N2CCCCC2)nc(NC2CCCC(Nc3ccnc4cc(Cl)ccc34)C2)n1` (stereo not given): the values for the GI50 in assay [2], in [3] and in assay [5] were 1.99 µM, 1.88 µM and 1.67 µM, respectively. Also, the TGI was 3.9 µM in assay [2], 4.84 µM in assay [3] and 3.42 µM in assay [5].

For the origin of these results see PubChem BioAssay (NCI).
